Test results taken from paper PMC6792352, “Limited Chemical Structural Diversity Found to Modulate Thyroid Hormone Receptor in the Tox21 Chemical Library” (Environmental Health Perspectives, 2019).
Structures can show the parent of a compound that is named as a salt. Non-standard residues stand in square brackets, D forms with d. Residues, ends and D or L forms follow the SMILES beside them. pGlu = O=C1CC[C@@H](C(=O)O)N1; Thz = O=C(O)[C@@H]1CSCN1

Experiment: in vitro
Conditions: rat, gh3-tre-luc cells

SMILES | CC50 at 24 h (AC50 (uM) modified / 1000) | also measured
O=C(O)c1ccccc1C(=O)O [Phthalic acid] | > 90 µM | –
O=C1OC(=O)c2ccccc21 [Phthalic anhydride] | > 90 µM | –
O=C(O)c1ccccc1C(=O)Nc1ccc(S(=O)(=O)Nc2nccs2)cc1 [Phthalylsulfathiazole] | > 50 µM | –
CCCCCCCCCCCCCCCC(=O)O[C@@H]1CC(C)=C(/C=C/C(C)=C/C=C/C(C)=C/C=C/C=C(C)/C=C/C=C(C)/C=C/C2=C(C)C[C@@H](OC(=O)CCCCCCCCCCCCCCC)CC2(C)C)C(C)(C)C1 [Physalien] | > 50 µM | –
CNC(=O)Oc1ccc2c(c1)[C@]1(C)CCN(C)[C@@H]1N2C [Physostigmine] | > 90 µM | –
CC1=C(C/C=C(\C)CCC[C@H](C)CCC[C@H](C)CCCC(C)C)C(=O)c2ccccc2C1=O [Phytonadione] | > 50 µM | –
Nc1c(Cl)c(Cl)nc(C(=O)O)c1Cl [Picloram] | > 100 µM | –
NNc1nnc(Cc2ccncc2)c2ccccc12 [Picodralazine] | > 50 µM | –
O=C(O)c1ccccn1 [Picolinic acid] | > 50 µM | –
OCc1ccccn1 [Piconol] | > 50 µM | –
O=S(=O)(O)Oc1ccc(C(c2ccc(OS(=O)(=O)O)cc2)c2ccccn2)cc1 [Picosulfate sodium] | > 50 µM | –
CO/C=C(/C(=O)OC)c1ccccc1COc1cccc(C(F)(F)F)n1 [Picoxystrobin] | > 90 µM | –
O=C1CC[C@@H](C(=O)O)N1 [Pidolic acid] | > 50 µM | –
O=C1CC[C@@H](C(=O)N2CSC[C@H]2C(=O)O)N1 [Pidotimod] ([pGlu]-[Thz]-OH) | > 50 µM | –
Clc1ccccc1-c1nc(-c2ccncc2)no1 [Pifexole] | > 50 µM | –
C/C(=N\O)c1ccc(OCC(=O)N2CCCCC2)cc1 [Pifoxime] | > 50 µM | –
CC[C@@H]1C(=O)OC[C@@H]1Cc1cncn1C [Pilocarpine] | > 50 µM | –
Cc1cccc(C)c1NC(=O)CC12CCCN1CCC2 [Pilsicainide] | > 50 µM | –
O=C1CCCCC1CN1CCCCC1 (centres unmarked) [Pimeclone] | – | CC50 at 24 h (AC50 (uM) modified / 1000, Tox21_110001=Tox21_111859, viability, 1 nM T3 present, 24 h): > 50 µM
CC[C@@H]1/C=C(\C)C[C@H](C)C[C@H](OC)[C@H]2O[C@@](O)(C(=O)C(=O)N3CCCC[C@H]3C(=O)O[C@H](/C(C)=C/[C@@H]3CC[C@H](Cl)[C@H](OC)C3)[C@H](C)[C@@H](O)CC1=O)[C@H](C)C[C@@H]2OC [Pimecrolimus] | > 50 µM | –
CN1CCC(=C2c3ccccc3Sc3ccccc32)CC1 [Pimethixene maleate] | 4.52 µM | –
COc1ccc(-c2nc3ccc(C4=NNC(=O)CC4C)cc3[nH]2)cc1 (centres unmarked) [Pimobendan hydrochloride] | 36.4 µM | –
CC(N/C(=N\C#N)Nc1ccncc1)C(C)(C)C (centres unmarked) [Pinacidil monohydrate] | > 50 µM | –
CC1CC[C@@H]2C[C@H]1C2(C)C (some centres unmarked) [Pinane] | > 90 µM | –
Cc1cccc(C)c1NC(=O)CN1CCCCCC1 [Pincainide] | > 50 µM | –
CC(C)NCC(O)COc1cccc2[nH]ccc12 (centres unmarked) [Pindolol] | > 50 µM | –

SMILES | CC50 at 24 h (AC50 (uM) modified / 1000) | also measured
COc1cc2c(cc1OC)C(C(C(=O)N(CCc1ccc(OC)c(OC)c1OC)CCc1ccc(OC)c(OC)c1OC)c1ccccc1)=NCC2 (centres unmarked) [Pinokalant hydrochloride] | 21.9 µM | –
CCc1ccc(CCOc2ccc(CC3SC(=O)NC3=O)cc2)nc1 (centres unmarked) [Pioglitazone hydrochloride] | > 90 µM | –
NC(=O)C1(N2CCCCC2)CCN(CCCC(=O)c2ccc(F)cc2)CC1 [Pipamperone dihydrochloride] | > 50 µM | –
CC(=O)O[C@H]1C[C@@H]2CC[C@@H]3[C@H](CC[C@@]4(C)[C@H]3C[C@H](N3CC[N+](C)(C)CC3)[C@@H]4OC(C)=O)[C@@]2(C)C[C@@H]1N1CC[N+](C)(C)CC1 [Pipecuronium bromide] | > 50 µM | –
CCn1cc(C(=O)O)c(=O)c2cnc(N3CCNCC3)nc21 [Pipemidic acid] | > 20 µM | –
CC[N+]1(C)CCCC(OC(=O)C(O)(c2ccccc2)c2ccccc2)C1 (centres unmarked) [Pipenzolate bromide] | > 50 µM | –
CC(=O)c1ccc2c(c1)N(CCCN1CCC(CCO)CC1)c1ccccc1S2 [Piperacetazine] | 10.7 µM | –
CCN1CCN(C(=O)N[C@@H](C(=O)N[C@@H]2C(=O)N3[C@@H]2SC(C)(C)[C@@H]3C(=O)O)c2ccccc2)C(=O)C1=O [Piperacillin sodium salt] | > 50 µM | –
C1CNCCN1 [Piperazine] | > 50 µM | –
C1CCNCC1 [Piperidine] | > 90 µM | –
CCN1CCCC(OC(=O)C(c2ccccc2)c2ccccc2)C1 (centres unmarked) [Piperidolate hydrochloride] | 11.6 µM | –
O=C(OCCN1CCCCC1)C(O)(c1ccccc1)c1ccccc1 [Piperilate hydrochloride] | > 50 µM | –
O=C(/C=C/C=C/c1ccc2c(c1)OCO2)N1CCCCC1 [Piperine] | > 90 µM | –
CC1CCCCN1CCCOC(=O)c1ccccc1 (centres unmarked) [Piperocaine hydrochloride] | > 50 µM | –
CC(=O)/C=C/c1ccc2c(c1)OCO2 [Piperonal acetone] | – | CC50 at 24 h (AC50 (uM) modified / 1000, Tox21_110001=Tox21_202464, viability, 1 nM T3 present, 24 h): 57.5 µM
O=Cc1ccc2c(c1)OCO2 [Piperonal] | – | CC50 at 24 h (AC50 (uM) modified / 1000, Tox21_110001=Tox21_200120, viability, 1 nM T3 present, 24 h): > 90 µM
CC(=O)OCc1ccc2c(c1)OCO2 [Piperonyl acetate] | > 90 µM | –
CC(=O)CCc1ccc2c(c1)OCO2 [Piperonyl acetone] | – | CC50 at 24 h (AC50 (uM) modified / 1000, Tox21_110001=Tox21_302658, viability, 1 nM T3 present, 24 h): > 90 µM
c1ccc2c(c1)OCC(CN1CCCCC1)O2 (centres unmarked) [Piperoxan] | > 50 µM | –
O=C(CCBr)N1CCN(C(=O)CCBr)CC1 [Pipobroman] | > 50 µM | –
CN1CCN(c2cc3c(nn2)Oc2ccccc2N3C)CC1 [Pipofezine] | > 50 µM | –
CCCCCCCCCCCCCCCC(=O)OCCC1CCN(CCCN2c3ccccc3Sc3ccc(S(=O)(=O)N(C)C)cc32)CC1 [Pipothiazine palmitate] | > 50 µM | –
COc1cccc2c1C(=O)c1c(O)c3c(c(O)c1C2=O)C[C@@](O)(C(=O)CO)C[C@@H]3O[C@H]1C[C@H](N)[C@H](O[C@@H]2CCCCO2)[C@H](C)O1 [Pirarubicin] | 1.64 µM | –
CC(C)(C)NCC(O)c1ccc(O)c(CO)n1 (centres unmarked) [Pirbuterol hydrochloride] | > 50 µM | –
O=C(O)c1cc(O)c2c3nc4ccccc4oc-3cc(=O)c2n1 [Pirenoxine sodium] | > 50 µM | –
Cc1nc2ccccn2c(=O)c1CCN1CCC(C(=O)c2ccc(F)cc2)CC1 [Pirenperone] | > 50 µM | –

SMILES | CC50 at 24 h (AC50 (uM) modified / 1000) | also measured
CN1CCN(CC(=O)N2c3ccccc3C(=O)Nc3cccnc32)CC1 [Pirenzepine] | > 50 µM | –
NS(=O)(=O)c1cc(C(=O)O)cc(N2CCCC2)c1Oc1ccccc1 [Piretanide] | > 20 µM | –
Cc1ccc(=O)n(-c2ccccc2)c1 [Pirfenidone] | > 50 µM | –
c1cnc(N2CCN(Cc3ccc4c(c3)OCO4)CC2)nc1 [Piribedil] | > 50 µM | –
Cc1nc(N(C)C)nc(OC(=O)N(C)C)c1C [Pirimicarb] | – | CC50 at 24 h (AC50 (uM) modified / 1000, Tox21_110001=Tox21_301003, viability, 1 nM T3 present, 24 h): > 90 µM
CCN(CC)c1nc(C)cc(OP(=S)(OC)OC)n1 [Pirimiphos-methyl] | – | CC50 at 24 h (AC50 (uM) modified / 1000, Tox21_110001=Tox21_300718, viability, 1 nM T3 present, 24 h): > 90 µM
Cc1cccc(Nc2cc(Cl)nc(SCC(=O)O)n2)c1C [Pirinixic acid] | > 90 µM | –
Cc1ccc2c(c1)c1c3n2CCNC3CCC1 (centres unmarked) [Pirlindole mesylate] | 9.12 µM | –
Cc1cc(CC(C)CC(C)(C)C)n(O)c(=O)c1 (centres unmarked) [Piroctone olamine] | 33 µM | –
CCn1cc(C(=O)O)c(=O)c2cnc(N3CCCC3)nc21 [Piromidic acid] | > 20 µM | –
O=C(O)C[C@H](O)C[C@H](O)/C=C/c1c(C2CC2)nc2ccccc2c1-c1ccc(F)cc1 [Pitavastatin calcium] | > 50 µM | –
COC(=O)c1ccccc1C(=O)c1ccc(OCCN2CCCCC2)cc1 [Pitofenone hydrochloride] | 42.7 µM | –
CC(C)(C)C(=O)NCCCC(=O)O [Pivagabine] | > 50 µM | –
CC(C)(C)C(=O)OCOC(=O)[C@@H]1N2C(=O)[C@@H](NC(=O)[C@H](N)c3ccccc3)[C@H]2SC1(C)C [Pivampicillin] | > 20 µM | –
CC(C)(C)C(=O)OCOC(=O)[C@@H]1N2C(=O)[C@@H](N=CN3CCCCCC3)[C@H]2SC1(C)C [Pivmecillinam hydrochloride] | > 20 µM | –
CC(C)(C)C(=O)OCOC(=O)[C@@H]1N2C(=O)C[C@H]2S(=O)(=O)C1(C)C [Pivoxil Sulbactam] | > 50 µM | –
CN1CCC(=C2c3ccccc3CCc3sccc32)CC1 [Pizotyline] | 10.6 µM | –
C=C[C@]1(C)C[C@@H](OC(=O)CO)[C@]2(C)[C@H](C)CC[C@]3(CCC(=O)[C@H]32)[C@@H](C)[C@@H]1O [Pleuromutilin] | > 50 µM | –
CO[C@H](C(=O)[C@@H](O)[C@@H](C)O)[C@@H]1Cc2cc3cc(O[C@H]4C[C@@H](O[C@H]5C[C@@H](O)[C@H](O)[C@@H](C)O5)[C@H](O)[C@@H](C)O4)c(C)c(O)c3c(O)c2C(=O)[C@H]1O[C@H]1C[C@@H](O[C@H]2C[C@@H](O[C@H]3C[C@](C)(O)[C@H](O)[C@@H](C)O3)[C@@H](O)[C@@H](C)O2)[C@H](O)[C@@H](C)O1 [Plicamycin] | 0.413 µM | –
CC(COCCO)OCCO (centres unmarked) [Pluronic F-127] | > 80 µM | –
Brc1cc(-c2ccc(Br)c(Br)c2Br)cc(Br)c1Br [Polybrominated biphenyls (PBB)] | > 50 µM | –
CCCCCCCC/C=C\CCCCCCCC(=O)OCCOC(=O)CCCCCCC/C=C\CCCCCCCC [Polyethylene glycol dioleate] | > 100 µM | –
CCCCCCCCCCCCCCCCCCOCCO [Polyethylene glycol stearyl ether] | > 20 µM | –
CCCCCCCCCCCCOCCOCCOCCOCCOCCOCCOCCOCCOCCO [Polyoxyethylene (9) lauryl ether] | 9.84 µM | –
CCCCCCCC/C=C/CCCCCCCC(=O)OCCO [Polyoxyethylene monoleate] | > 100 µM | –
